Biological target: T1, human capsaicin receptor (Homo sapiens, UniProt Q8NER1)
T1 construct: transfected with the pBK-CMV expression construct encoding the full length human capsaicin receptor; expressed in transfected cells
Assay: Calcium mobilization assay (antagonist and agonist activity)
Type: cell-based
Settings: capsaicin as positive control in agonist assay; read-out: approximate EC90 concentration
Description: This Example illustrates representative calcium mobilization assays for use in evaluating test compounds for agonist and antagonist activity.
The culture medium is emptied from the 96 well plates and FLUO-3 AM calcium sensitive dye (Molecular Probes, Eugene, Oreg.) is added to each well (dye solution: 1 mg FLUO-3 AM, 440 μL DMSO and 440 μl 20% pluronic acid in DMSO, diluted 1:250 in Krebs-Ringer HEPES (KRH) buffer (25 mM HEPES, 5 mM KCl, 0.96 mM NaH2PO4, 1 mM MgSO4, 2 mM CaCl2, 5 mM glucose, 1 mM probenecid, pH 7.4), 50 μl diluted solution per well). Plates are covered with aluminum foil and incubated at 37° C. for 1-2 hours in an environment containing 5% CO2. […]
To measure the ability of a test compound to agonize or antagonize a calcium mobilization response in cells expressing capsaicin receptors to capsaicin or other vanilloid agonist, the EC50 of the agonist capsaicin is first determined. […] Capsaicin-induced calcium mobilization is monitored using either FLUOROSKAN ASCENT (Labsystems; Franklin, Mass.) or FLIPR (fluorometric imaging plate reader system; Molecular Devices, Sunnyvale, Calif.) instruments. […]
In this equation, y is the maximum fluorescence signal, x is the concentration of the agonist or antagonist (in this case, capsaicin), a is the Emax, b corresponds to the EC50 value and c is the Hill coefficient. […]

T1 sequence (Q8NER1 whole entry): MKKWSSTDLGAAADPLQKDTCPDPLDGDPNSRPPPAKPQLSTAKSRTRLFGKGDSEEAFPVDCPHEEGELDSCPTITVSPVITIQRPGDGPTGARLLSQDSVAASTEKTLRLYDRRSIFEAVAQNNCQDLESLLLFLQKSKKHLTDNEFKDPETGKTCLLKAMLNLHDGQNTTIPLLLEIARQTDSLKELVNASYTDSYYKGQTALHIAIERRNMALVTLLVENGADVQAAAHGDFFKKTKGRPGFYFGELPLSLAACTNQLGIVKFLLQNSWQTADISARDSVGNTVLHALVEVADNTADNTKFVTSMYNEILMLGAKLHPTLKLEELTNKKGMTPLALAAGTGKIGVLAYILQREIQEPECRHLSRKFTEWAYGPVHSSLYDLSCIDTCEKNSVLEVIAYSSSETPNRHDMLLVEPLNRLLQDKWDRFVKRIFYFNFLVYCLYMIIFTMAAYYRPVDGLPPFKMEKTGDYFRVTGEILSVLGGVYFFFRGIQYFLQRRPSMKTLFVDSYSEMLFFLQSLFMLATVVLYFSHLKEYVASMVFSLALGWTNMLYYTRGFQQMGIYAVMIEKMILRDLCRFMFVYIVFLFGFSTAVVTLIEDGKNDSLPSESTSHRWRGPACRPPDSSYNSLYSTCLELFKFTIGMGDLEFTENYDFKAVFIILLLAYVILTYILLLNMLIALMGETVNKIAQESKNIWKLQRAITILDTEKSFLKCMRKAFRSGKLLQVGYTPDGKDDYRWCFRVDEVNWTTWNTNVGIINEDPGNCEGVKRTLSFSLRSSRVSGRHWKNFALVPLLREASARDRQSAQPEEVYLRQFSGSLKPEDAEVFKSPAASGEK

EC90: ~100 nM
Structure (SMILES): COc1cc(CNC(=O)CCCC/C=C/C(C)C)ccc1O [capsaicin]
